Data as given in PubChem BioAssay (NCI).
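All cell lines were grown in 96-well plates and treated with compound for 48 hours. GI50 = concentration required for 50% inhibition of growth. TGI denotes the concentration required for complete inhibition of growth.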

What was measured:
Experiment in all cases: inhibition of tumour cell growth, NCI panel, 48 h
SK-MEL-28 melanoma = test system: SK-MEL-28 melanoma
MALME-3M melanoma = test system: MALME-3M melanoma
UACC-257 melanoma = test system: UACC-257 melanoma
HCT-116 colon = test system: HCT-116 colon
SW-620 colon = test system: SW-620 colon
KM12 colon = test system: KM12 colon
SF-295 CNS = test system: SF-295 CNS
SN12C renal = test system: SN12C renal
HCT-15 colon = test system: HCT-15 colon
PC-3 prostate = test system: PC-3 prostate

Row | SMILES | TGI (SK-MEL-28 melanoma) | TGI (MALME-3M melanoma) | TGI (UACC-257 melanoma) | TGI (HCT-116 colon) | TGI (SW-620 colon) | TGI (KM12 colon) | TGI (SF-295 CNS) | TGI (SN12C renal) | GI50 (HCT-116 colon) | GI50 (SW-620 colon) | GI50 (KM12 colon) | GI50 (SF-295 CNS) | GI50 (SN12C renal) | GI50 (HCT-15 colon) | TGI (HCT-15 colon) | GI50 (PC-3 prostate) | TGI (PC-3 prostate) | GI50 (SK-MEL-28 melanoma) | GI50 (MALME-3M melanoma) | GI50 (UACC-257 melanoma)
1 | ClC[Si]12OCCN(CCO1)CCO2 | > 100 µM | > 100 µM | > 100 µM | > 100 µM | > 100 µM | > 100 µM | > 100 µM | > 100 µM | – | – | – | – | – | – | – | – | – | – | – | –
2 | O=S(=O)(NCCCNc1cc(-c2cn(-c3ccccc3)nc2-c2cccc(O)c2)ccn1)c1ccc(Cl)cc1 | – | – | – | 3.29 µM | 3.54 µM | 4.93 µM | 3.29 µM | 6.09 µM | 1.57 µM | 1.62 µM | 1.95 µM | 1.42 µM | 2.23 µM | 1.34 µM | 3.45 µM | 1.74 µM | 6.1 µM | – | – | –
3 | O=C1C(Cl)=C(Nc2cccc(O)c2)C(=O)N1c1cccc(Cl)c1Cl | > 100 µM | 53.9 µM | – | 23.2 µM | 34.5 µM | 86.8 µM | 25.2 µM | 28.2 µM | 11.2 µM | 15.2 µM | 24.6 µM | 3.28 µM | 14.5 µM | 20.7 µM | 56.7 µM | 6.92 µM | 28.6 µM | 24.4 µM | 11.7 µM | –
4 | COC(=O)C1C2CCCN2OC1(C)CO (stereo not given) | > 100 µM | – | > 100 µM | > 100 µM | > 100 µM | > 100 µM | > 100 µM | > 100 µM | – | – | – | – | – | – | > 100 µM | – | > 100 µM | – | – | –
5 | CN(C)/C=N/c1nc2ncn(CCOC(=O)c3ccccc3)c2c(=O)[nH]1 | > 100 µM | > 100 µM | > 100 µM | > 100 µM | > 100 µM | > 100 µM | > 100 µM | > 100 µM | – | – | – | – | – | – | > 100 µM | – | – | – | – | –
6 | N#CC1=C(c2ccccc2)C(O)(c2ccccc2)NC1=O (stereo not given) | > 100 µM | 74 µM | > 100 µM | > 100 µM | > 100 µM | > 100 µM | > 100 µM | > 100 µM | – | – | – | – | – | – | > 100 µM | – | – | – | – | –
7 | CC(Oc1ccc2cc(C(=O)c3ccccc3)c(=O)oc2c1)C(=O)O (stereo not given) | > 100 µM | > 100 µM | > 100 µM | > 100 µM | > 100 µM | > 100 µM | > 100 µM | > 100 µM | – | – | – | – | – | – | – | – | – | – | – | –
8 | COc1ccc(C(=O)O)c(Cc2ccc3ccccc3c2)c1 | > 100 µM | > 100 µM | > 100 µM | > 100 µM | > 100 µM | > 100 µM | > 100 µM | > 100 µM | – | – | – | – | – | – | – | – | – | – | – | –
9 | Nc1c(C(=O)Nc2ccccc2)sc2nc3c(cc12)CCCC3 | > 100 µM | 95.2 µM | – | > 100 µM | > 100 µM | > 100 µM | 49.6 µM | > 100 µM | 0.49 µM | 0.403 µM | 0.485 µM | 0.635 µM | 1.23 µM | 0.436 µM | > 100 µM | 0.703 µM | > 71.2 µM | 14.7 µM | 0.608 µM | –
10 | C/C(=N\NC(=O)c1ccncc1)c1ccc(O)cc1O | > 100 µM | – | 88.5 µM | > 100 µM | > 100 µM | > 100 µM | 6.69 µM | > 100 µM | 3.16 µM | 7.68 µM | 8.59 µM | 2.39 µM | 6.48 µM | 4.83 µM | > 100 µM | 10.9 µM | > 100 µM | 9.26 µM | – | 4.06 µM
11 | CC1=CC2C(C(C)C)CC1C1C(=O)OC(=O)C21 (stereo not given) | > 100 µM | > 100 µM | > 100 µM | > 100 µM | > 100 µM | – | – | > 100 µM | – | – | – | – | – | – | > 100 µM | – | > 100 µM | – | – | –
12 | O=C1C(N2C(=O)c3ccccc3C2=O)CN1C(COCc1ccccc1)c1ccc(OCc2ccccc2)cc1 (stereo not given) | > 100 µM | > 100 µM | > 100 µM | > 100 µM | > 100 µM | > 100 µM | > 100 µM | > 100 µM | – | – | – | – | – | – | > 100 µM | – | – | – | – | –
13 | COc1ccc(-c2nocc2-c2cc(OC)c(OC)c(OC)c2)cc1 | > 89.9 µM | 60.7 µM | – | 13.1 µM | > 100 µM | 14.1 µM | 16.9 µM | > 96.2 µM | 0.0412 µM | 0.0466 µM | 0.0386 µM | 0.0475 µM | 0.942 µM | 0.0447 µM | > 100 µM | 0.0536 µM | 37.6 µM | 6.9 µM | 21.6 µM | –
14 | Cc1nn(-c2ccc(Br)cc2)c(C)c1CC(=O)c1cc(O)ccc1O | 47.5 µM | – | 26.6 µM | > 50 µM | > 50 µM | > 50 µM | 30.3 µM | 16.6 µM | 12.6 µM | 14.4 µM | 5.91 µM | 14.9 µM | 6.79 µM | 4.61 µM | 15.8 µM | 9.97 µM | > 50 µM | 12.6 µM | – | 11.2 µM
15 | c1ccc(C2N3CCCCC3[C@@H]3c4[nH]c5ccccc5c4CCN23)cc1 (stereo not given in full) | 70.2 µM | > 100 µM | > 100 µM | > 100 µM | > 100 µM | – | > 100 µM | > 100 µM | – | – | – | – | – | – | > 100 µM | – | – | – | – | –
16 | COc1ccc(/C(C)=N/NC(N)=S)c(OC)c1 | > 100 µM | > 100 µM | > 100 µM | > 100 µM | > 100 µM | > 100 µM | > 100 µM | > 100 µM | – | – | – | – | – | – | > 100 µM | – | – | – | – | –
17 | Cc1ccc(NC(=O)c2nc(S(C)=O)oc2-c2ccc(F)cc2)cc1Nc1nccc(-c2cccnc2)n1 (stereo not given) | 3.97 µM | 2.89 µM | 7.74 µM | 3.57 µM | 4.01 µM | 7.14 µM | 29.2 µM | 3.73 µM | 1.88 µM | 2.1 µM | 2.58 µM | 15.1 µM | 1.81 µM | – | – | 2.25 µM | 4.85 µM | 1.95 µM | 1.34 µM | 2.72 µM
18 | C=C1N(C)c2ccc(Cl)cc2C1(C)C | > 100 µM | 20.5 µM | 60.5 µM | 17.5 µM | > 100 µM | 13.7 µM | 38.5 µM | 38.1 µM | 3.52 µM | 5.8 µM | 3.95 µM | 4.17 µM | 5.38 µM | 29.1 µM | > 100 µM | – | – | 19.7 µM | 3.32 µM | 6.84 µM
